Laboratory results published in patent publication US11759480B2, “Compositions and methods for CAR T cell therapy” (ENDOCYTE, INC., priority 2017, dated 2023).

Legend:
KB = test: FITC-CAR-T/EC17 therapy, KB model (Example 28); assay type: in vivo, NSG mice
Method: To test whether FITC-CAR-T/EC17 therapy has anti-tumor activity in various FR+ tumor models, NSG mice were subcutaneously implanted with MDA-MB-231 (triple negative breast cancer cell line), OV90 (human ovarian cancer cell line), KB (human cervical adenocarcinoma cell line), SKOV-3 (human ovarian carcinoma cell line), or HEK293-FRa (HEK293 stably-transfected with human FRa). When tumor size reached […], one dose of EC17 at 500 nmol/kg of body weight was injected by tail vein followed with administering of 5 million FITC-CAR-T cells 4 hours later. 500 nmol/kg EC17 was dosed once every week after the initial EC17/CAR-T administration (about day 7), tumor size and body weights of mice were monitored three times per week. The EC17 dosing days were labeled as green dashed vertical lines in the graph. […] EC17 dose-dependent temporary body weight loss was also observed in all tumor bearing mice, indicating the activation of CAR-Ts is EC17-dependent in these mice.

MDA-MB-231 = test: EC17 dependent anti-tumor activity, MDA-MB-231 xenograft (Example 26); assay type: in vivo, NSG mice; details: 500 nmoles/kg once per week, 5 million CAR-T
Text: Immunodeficient NSG mice (Jackson Laboratory) were used to show the efficacy of CAR T cell anti-tumor activity with a single dose of EC17 per week. Two folate receptor expressing cancer cell lines were used to establish subcutaneous solid tumor xenografts: MDA-MB-231 has high folate receptor expression, while OV90 has low folate receptor expression. When tumor volume of around 100-250 mm^3 was reached, mice were divided into two groups. Mice in the “EC17 500 nmol/kg” group (nmol/kg is equivalent to nmoles/kg as used in this patent application for the bridge) were injected with 500 nmoles/kg of body weight of EC17, while mice in the “no EC17” group were not injected with EC17. Four hours later, mice in both groups were administered 5 million anti-FITC CAR-T cells. After initial administration of EC17 and CAR-T cells, only mice in the “EC17 500 nmol/kg” group were injected (i.v.) with 500 nmoles/kg of EC17 once per week. Anti-tumor efficacy was monitored by tumor volume.

For Nc1nc2ncc(CNc3ccc(C(=O)NC(CCC(=O)NCCNC(=S)Nc4ccc(-c5c6ccc(=O)cc-6oc6cc(O)ccc56)c(C(=O)O)c4)C(=O)O)cc3)nc2c(=O)[nH]1 (stereo not shown) [EC17, FITC-Folate], the tumor response (KB; 500 nmol/kg weekly, 5 million FITC-CAR-T) was “stable disease”, the “fraction of mice with sCRS” value (KB; day 23) was “⅔” and the “fraction of mice with sCRS” value (KB; day 37) was “⅓”. For the same molecule, the anti-tumor activity (MDA-MB-231) was “eliminate MDA-MB-231 tumors”.
